Test results: US20220016277A1, “MACROCYCLIC COMPLEXES OF RADIONUCLIDES AND THEIR USE IN RADIOTHERAPY OF CANCER” (Cornell University, priority 2018, published 2022)

Experiments:
[1] = Kinetic inertness of ^225Ac complexes: challenge with excess La^3+; assay type: physicochemical; details: 50-fold excess of La^3+; macropa 0.59 μM; RT; over 7 days
Description: Kinetic Inertness of ^225Ac Complexes of Macropa and DOTA.
General. Stock solutions of La(NO3)3 (0.001 M or 0.1 M) were prepared in H2O. To the radiolabeled samples containing macropa (10 μL of 10^−5M stock; 1.0×10^−10 moles) or DOTA (10 μL of 10^_3M stock; 1.0×10^−8 moles) and ^225Ac (10 μL, 26 kBq) in NH4OAc buffer (pH 6, 0.15 M, 150 μL), a 50-fold mole excess of La^3+ was added (5 μL of 0.001 M or 0.1 M stock were added to solutions containing macropa and DOTA, respectively). The solutions were kept at room temperature and analyzed by iTLC at several time points over the course of 8 days. The iTLC plates were developed using citric acid (0.05 M, pH 5) as the eluent. Under these conditions, [^225Ac(macropa)]^+ and [^225Ac(DOTA)]^− remained at the baseline (RF=0) and any unchelated ^225Ac (^225Ac-citrate) migrated with the solvent front (RF=1). Percent of complex remaining intact was calculated by integrating area under the peaks on the radiochromatogram and dividing the counts associated with the ^225Ac-complex (RF=0) by the total counts integrated along the length of the iTLC plate.
(§1) The long half-life of ^225Ac necessitates its stable complex retention in vivo to avoid off-target damage to normal tissues arising from the release of free ^225Ac^3+. Furthermore, the stability of ^225Ac complexes against transmetalation and transchelation needs to be high. […]

[2] = Stability of [^225Ac(macropa)]^+ in human serum; assay type: in vitro ADME
Description: Transmetalation by La^3+. [^225Ac(macropa)]^+ and [^225Ac(DOTA)] were prepared using 10^−5 M and 10^−3 M stock solutions (10 μL) of macropa and DOTA, respectively, to give final ligand concentrations of 5.9×10^−7 M (macropa) and 5.9×10^−5 M (DOTA). After confirming a radiochemical yield of >90% by TLC using 0.4 M sodium citrate (pH 4) containing 10% MeOH as the mobile phase, 160 μL of human serum (an equal volume based on labeling reaction volume) were added to each radiolabeled solution. A control solution was also prepared in which water was substituted for ligand. The solutions were monitored over the course of 8 days by iTLC. The plates were developed with EDTA (50 mM, pH 5) as the eluent. Under these conditions, [^225Ac(macropa)]^+ and [^225Ac(DOTA)]^− complexes remained at the baseline (RF=0) and any ^225Ac (^225Ac-EDTA) that had been transchelated by serum migrated with the solvent front (RF=1). Percent of complex remaining intact was calculated.
as §1, with “high. To determine the kinetic inertness, [^225Ac(macropa)]^+ was challenged with La^3+ because of the established high affinity of macropa for this metal ion.” for “high.”

## O=C([O-])c1cccc(CN2CCOCCOCCN(Cc3cccc(C(=O)[O-])n3)CCOCCOCC2)n1.[225Ac+3] [[^225Ac(macropa)]^+]
[1]
  ^225Ac complex remaining intact (radio-TLC): 98%
[2]
  time ^225Ac^3+ remains complexed in human serum (radio-TLC): at least 8 days
